ChEMBL document CHEMBL3046542, “Synthesis of some new 3,4-dihydro-2H-1,3-benzoxazines under microwave irradiation in solvent-free conditions and their biological activity” (Med Chem Res, 2011)

Assays:
Rattus norvegicus [1] = assay: Anti-inflammatory activity in Rattus norvegicus Wistar (rat) assessed as inhibition of carrageenan-induced paw edema at dose molecularly equivalent to 20 mg/kg of ibuprofen administered as po after 3 hr relative to ibuprofen; assay type: functional
Rattus norvegicus [2] = assay: Gastrointestinal toxicity in Rattus norvegicus Wistar (rat) assessed as ulcer index at dose molecularly equivalent to 60 mg/kg of ibuprofen administered as po; assay type: organism-based; design: dose 60 mg/kg, route oral; conditions: in vivo
Mus musculus = assay: Analgesic activity in Mus musculus Swiss albino (mouse) assessed as protection against acetic acid-induced writhing effect at 20 mg/kg, po after 3 hr relative to control; assay type: functional
Rattus norvegicus [3] = assay: Gastrointestinal toxicity in Rattus norvegicus Wistar (rat) assessed as ulcer index at 60 mg/kg, po; assay type: organism-based; design: dose 60 mg/kg, route oral; conditions: in vivo
Rattus norvegicus [4] = assay: Anti-inflammatory activity in Rattus norvegicus Wistar (rat) assessed as inhibition of carrageenan-induced paw edema at 20 mg/kg, po after 3 hr relative to control; assay type: functional

Row | Compound | inhibition in vivo (Rattus norvegicus [1]) [%] | UI (Rattus norvegicus [2]) | Activity (Mus musculus) [%] | UI (Rattus norvegicus [3]) | inhibition in vivo at 20 mg/kg (Rattus norvegicus [4]) [%]
1 | COc1cc(/C=C/C(=O)c2ccc3c(c2)CN(c2ccc(C)cc2)CO3)cc(OC)c1OC | 56.5 |  |  |  | 
2 | Cc1ccc(N2COc3ccc(C(=O)/C=C/c4ccc(Cl)cc4)cc3C2)cc1 | 63.4 |  |  |  | 
3 | Cc1ccc(N2COc3ccc(C(=O)/C=C/c4ccc(Cl)cc4Cl)cc3C2)cc1 | 71.9 | 0.17 | 55.47 |  | 
4 | COc1ccc(N2COc3ccc(C(=O)/C=C/c4ccccc4Cl)cc3C2)cc1 | 63.4 |  |  |  | 
5 | COc1ccc(/C=C/C(=O)c2ccc3c(c2)CN(c2ccc(OC)cc2)CO3)cc1 | 61.2 |  |  |  | 
6 | COc1ccc(N2COc3ccc(C(=O)/C=C/c4ccccc4O)cc3C2)cc1 | 55.7 |  |  |  | 
7 | COc1ccc(N2COc3ccc(C(=O)/C=C/c4cc(OC)c(OC)c(OC)c4)cc3C2)cc1 | 62.2 |  |  |  | 
8 | COc1ccc(N2COc3ccc(C(=O)/C=C/c4ccc(Cl)cc4)cc3C2)cc1 | 67.4 | 0.25 | 52.22 |  | 
9 | COc1ccc(N2COc3ccc(C(=O)/C=C/c4ccc(Cl)cc4Cl)cc3C2)cc1 | 74.9 | 0.08 | 57.38 |  | 
10 | Cc1ccc(N2COc3ccc(C(=O)/C=C/c4ccccc4Cl)cc3C2)cc1 | 60.4 |  |  |  | 
11 | COc1ccc(/C=C/C(=O)c2ccc3c(c2)CN(c2ccc(C)cc2)CO3)cc1 | 70.4 | 0.17 | 54.27 |  | 
12 | Cc1ccc(N2COc3ccc(C(=O)/C=C/c4ccccc4O)cc3C2)cc1 | 51 |  |  |  | 
13 | CC(C)Cc1ccc(C(C)C(=O)O)cc1 (stereo not drawn) [IBUPROFEN] |  |  | 63.06 | 1 | 82.3
